Laboratory results published in patent publication EP4324461A1, “(E)-N-CINAMOYLAMINOALKANOLES WITH MELANOGENESIS INHIBITORY ACTIVITY” (UNIWERSYTET JAGIELLONSKI, priority 2022, dated 2024).

Columns and labels:
[1] = system: human reconstructed epidermis model EpiDerm™; test: Extended skin irritation test in reconstructed human epidermis (EpiDerm), 2 and 7 days; assay type: cell-based; settings: for Il-1α in culture medium: medium after the first 24 hours
Method: In order to perform extended skin irritation (safety) tests on the reconstructed human epidermis, the exposure time to the tested compounds was extended to 2 and 7 days in the human reconstructed epidermis model EpiDerm™ from MatTek. The epidermis was cultured according to the manufacturer's recommendations, using appropriate multi-well plates and culture media. Solutions of the tested compounds were applied to the epidermis using a positive displacement pipette and distributed using a sterile glass bulb headed Pasteur pipette. […] The epidermis was cultured in an incubator ensuring appropriate humidity, temperature (37 °C) and CO2 concentration (5%). The medium was replaced daily. After an appropriate incubation time, i.e. 2 days or 7 days, the epidermis was rinsed with sterile DPBS and incubated with MTT (Thiazolyl Blue Tetrazolium bromide) solution at 37 °C for 3 hours. After this time, a purple color of formazan was observed, correlated with tissue viability. […] Moreover, in the medium collected after the first 24 hours of EpiDerm epidermis culture, the level of interleukin 1α (Il-1α), which is a mediator of inflammation, was determined. Its level correlates with the unfavorable (irritating) effect of the tested substances on the epidermis. The level of IL-1α was determined using the Cayman Elisa test. […] Table 6. Viability results and results of interleukin 1α concentration measurement in the culture medium in the irritation test in the reconstructed human epidermis model EpiDerm.

Keratinocytes (HaCaT) = test: Safety, MTT test in keratinocytes; assay type: cell-based; settings: 48 hours
Method: (§1) In order to test the safety of the compounds, both normal human cells were used: keratinocytes (HaCaT), fibroblasts (BJ), primary melanocytes that occur in the skin, as well as human cancer cells: the hepatocarcinoma line HepG2 and the neuroblastoma line SH-SY5Y, which are considered a model for the assessment of hepatocytotoxicity and neurocytotoxicity. The concentrations of the tested compounds in the range of 250-100 µM were used in the studies. The cell lines used in the research were purchased from the American Type Culture Collection (ATCC) and were cultured in media recommended by the manufacturer with the addition of FBS and antibiotics in an incubator ensuring appropriate culture conditions, i.e. humidity, temperature and CO2 concentration. Cells were seeded into multiwell plates and incubated with the test compounds for 48 hours. After this time, MTT and LDH tests were performed to assess cell viability. The MTT test is based on the ability to transform the substrate: [3-(4,5-dimethyl-2-thiazolyl)-2,5-diphenyl-2H-tetrazolium bromide into a colored product only by living cells. The absorbance at 570 nm, which corresponds to the absorption maximum for the product, is directly proportional to cell viability. The LDH test is based on testing the activity of the enzyme lactate dehydrogenase in the culture medium, which is released from cells as a result of damage to the cell membrane, e.g. as a result of cell death. Triton X-100 was used as a positive control in the test. The determination is colorimetric, the substrate is transformed by the released enzyme into a colored product, an increase in absorbance indicates a larger amount of the released enzyme, and thus confirms greater damage to cell membranes. Tables 7 and 8 present the results obtained, which correspond to the viability of cells incubated with the compounds in relation to the viability of cells constituting a control sample, i.e. incubated with the solvent (DMSO) at the same concentration as in the case of the groups tested in the MTT test or in relation to the results obtained for the Triton X-100 positive control in the LDH test. They indicate that the compounds are safe at the concentrations tested. Table 7. Viability of tested normal human cell lines: keratinocytes (HaCaT), fibroblasts (BJ) and primary melanocytes after incubation with the tested compounds - determination in the MTT test (% of solvent control ± SD) and LDH (percentage of positive control - Triton X-100.

Fibroblasts (BJ) [2] = test: Safety, MTT test in fibroblasts; assay type: cell-based; settings: 48 hours
Method: as §1

Fibroblasts (BJ) [3] = test: Safety, LDH test in fibroblasts; assay type: cell-based; settings: 48 hours, positive control Triton X-100
Method: as §1

Primary melanocytes [4] = test: Safety, MTT test in primary melanocytes; assay type: cell-based; settings: 48 hours
Method: as §1

Primary melanocytes [5] = test: Safety, LDH test in primary melanocytes; assay type: cell-based; settings: 48 hours, positive control Triton X-100
Method: as §1

Hepatocarcinoma HepG2 [6] = test: Safety, MTT test in HepG2; assay type: cell-based; settings: 48 hours
Method: as §1

Hepatocarcinoma HepG2 [7] = test: Safety, LDH test in HepG2; assay type: cell-based; settings: 48 hours, positive control Triton X-100
Method: as §1

neuroblastoma SH-SY5Y = test: Safety, LDH test in SH-SY5Y; assay type: cell-based; settings: 48 hours, positive control Triton X-100
Method: as §1

S. typhimurium TA98 = test: Ames microplate test, TA98; assay type: cell-based, Salmonella typhimurium;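 further: reference level is the mean solvent-control yellow wells plus SD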
Method: (§2) Bacteria were grown overnight in growth medium.
(§3) Table 9. Ames microplate test results.

S. typhimurium TA1537 = test: Ames microplate test, TA1537; assay type: cell-based, Salmonella typhimurium;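 further: reference level is the mean solvent-control yellow wells plus SD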
Method: as §2, §3

E. coli WP2 = test: Ames microplate test, E. coli WP2;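 further: bacteria treated 90 min at 37 °C in 24-well plates, then indicator medium dispensed to 384-well plates and incubated 48 h before yellow-well counting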
Method: The study used the Ames microplate test (Ames MPF™ Penta 2 by Xenometrix, Allschwil, Switzerland). Growth medium, exposure medium, indicator medium, positive controls, hepatic microsomal fraction, NADP, glucose-6-phosphate, Salmonella typhimurium and Escherichia coli strains were components of the purchased experimental kit. Bacteria were grown overnight in growth medium. They were then exposed to the test compound at the appropriate concentration in exposure medium without or with the rat microsomal fraction S9 in 24-well plates for 90 min at 37 °C with shaking. Then, indicator medium was added to the wells and pipetted into 384-well plates, which were incubated for 48 hours at 37 °C without shaking. Results were assessed by counting the wells in which the medium turned yellow for each experimental condition.

[8] = 2 days, 1.0% in 50% PEG (10 µL)
[9] = 7 days, 1.0% in 50% PEG (10 µL)

Compound: O=C(/C=C/c1ccc(Cl)cc1)NCCCCCO [Compound A-111, (2E)-3-(4-chlorophenyl)-N-(5-hydroxypentyl)prop-2-enamide]
- Il-1α in culture medium ([1]; 1.0% in 50% PEG (10 µL)): 15.89 ± .057 pg/mL
- Viability [% of control, mean±SD] ([1]; 2 days, 0.1% in 50% PEG (10 µL)): 88.42±1.25 % of control
- Viability [% of control, mean±SD] ([1]; 2 days, 0.5% in 50% PEG (10 µL)): 92.02±3.47 % of control
- Viability [% of control, mean±SD] [1, 8]: 98.56±11.78 % of control
- Viability [% of control, mean±SD] ([1]; 7 days, 0.1% in 50% PEG (10 µL)): 107.77±3.12 % of control
- Viability [% of control, mean±SD] ([1]; 7 days, 0.5% in 50% PEG (10 µL)): 113.85±4.03 % of control
- Viability [% of control, mean±SD] [1, 9]: 100.41±1.52 % of control
- Keratinocytes (HaCaT) MTT (Keratinocytes (HaCaT); 100 µM): 101.68±3.45 % of solvent control
- Keratinocytes (HaCaT) MTT (Keratinocytes (HaCaT); 150 µM): 101.56±1.94 % of solvent control
- Keratinocytes (HaCaT) MTT (Keratinocytes (HaCaT); 200 µM): 101.04±2.77 % of solvent control
- Keratinocytes (HaCaT) MTT (Keratinocytes (HaCaT); 250 µM): 91.57±2.10 % of solvent control
- Fibroblasts (BJ) MTT (Fibroblasts (BJ) [2]; 100 µM): 99.88±5.25 % of solvent control
- Fibroblasts (BJ) MTT (Fibroblasts (BJ) [2]; 150 µM): 100.94±3.37 % of solvent control
- Fibroblasts (BJ) MTT (Fibroblasts (BJ) [2]; 200 µM): 98.94±4.04 % of solvent control
- Fibroblasts (BJ) MTT (Fibroblasts (BJ) [2]; 250 µM): 94.51±5.03 % of solvent control
- Fibroblasts (BJ) LDH (Fibroblasts (BJ) [3]; 100 µM): 5.25 percentage of positive control
- Fibroblasts (BJ) LDH (Fibroblasts (BJ) [3]; 150 µM): 5.37 percentage of positive control
- Fibroblasts (BJ) LDH (Fibroblasts (BJ) [3]; 200 µM): 8.43 percentage of positive control
- Fibroblasts (BJ) LDH (Fibroblasts (BJ) [3]; 250 µM): 14.90 percentage of positive control
- Primary melanocytes MTT (Primary melanocytes [4]; 100 µM): 104.51±1.19 % of solvent control
- Primary melanocytes MTT (Primary melanocytes [4]; 150 µM): 103.09±1.79 % of solvent control
- Primary melanocytes MTT (Primary melanocytes [4]; 200 µM): 99.25±1.92 % of solvent control
- Primary melanocytes MTT (Primary melanocytes [4]; 250 µM): 93.39±1.60 % of solvent control
- Primary melanocytes LDH (Primary melanocytes [5]; 100 µM): 3.31 percentage of positive control
- Primary melanocytes LDH (Primary melanocytes [5]; 150 µM): 4.95 percentage of positive control
- Primary melanocytes LDH (Primary melanocytes [5]; 200 µM): 13.38 percentage of positive control
- Primary melanocytes LDH (Primary melanocytes [5]; 250 µM): 18.41 percentage of positive control
- Hepatocarcinoma HepG2 MTT (Hepatocarcinoma HepG2 [6]; 100 µM): 101.10±6.01 % of solvent control
- Hepatocarcinoma HepG2 MTT (Hepatocarcinoma HepG2 [6]; 150 µM): 97.87±3.27 % of solvent control
- Hepatocarcinoma HepG2 MTT (Hepatocarcinoma HepG2 [6]; 200 µM): 98.19±3.27 % of solvent control
- Hepatocarcinoma HepG2 MTT (Hepatocarcinoma HepG2 [6]; 250 µM): 96.27±2.57 % of solvent control
- Hepatocarcinoma HepG2 LDH (Hepatocarcinoma HepG2 [7]; 100 µM): 4.90 percentage of positive control
- Hepatocarcinoma HepG2 LDH (Hepatocarcinoma HepG2 [7]; 150 µM): 4.73 percentage of positive control
- Hepatocarcinoma HepG2 LDH (Hepatocarcinoma HepG2 [7]; 200 µM): 5.48 percentage of positive control
- Hepatocarcinoma HepG2 LDH (Hepatocarcinoma HepG2 [7]; 250 µM): 9.75 percentage of positive control
- Neuroblastoma SH-SYSY LDH (neuroblastoma SH-SY5Y; 100 µM): 4.90 percentage of positive control
- Neuroblastoma SH-SYSY LDH (neuroblastoma SH-SY5Y; 150 µM): 4.61 percentage of positive control
- Neuroblastoma SH-SYSY LDH (neuroblastoma SH-SY5Y; 200 µM): 5.98 percentage of positive control
- Neuroblastoma SH-SYSY LDH (neuroblastoma SH-SY5Y; 250 µM): 6.77 percentage of positive control
- Increase in the number of yellow wells compared to the reference level (S. typhimurium TA98; 0.5 mM, +S9): 1.50
- Increase in the number of yellow wells compared to the reference level (S. typhimurium TA98; 0.5 mM, without S9): 0.7
- Increase in the number of yellow wells compared to the reference level (S. typhimurium TA98; 1.0 mM, +S9): 0.83
- Increase in the number of yellow wells compared to the reference level (S. typhimurium TA98; 1.0 mM, without S9): 0.44
- Increase in the number of yellow wells compared to the reference level (S. typhimurium TA98; 2.0 mM, +S9): 1.50
- Increase in the number of yellow wells compared to the reference level (S. typhimurium TA98; 2.0 mM, without S9): 1.00
- Increase in the number of yellow wells compared to the reference level (S. typhimurium TA1537; 0.5 mM, +S9): 0.27
- Increase in the number of yellow wells compared to the reference level (S. typhimurium TA1537; 0.5 mM, without S9): 0.80
- Increase in the number of yellow wells compared to the reference level (S. typhimurium TA1537; 1.0 mM, +S9): 0.45
- Increase in the number of yellow wells compared to the reference level (S. typhimurium TA1537; 1.0 mM, without S9): 0.54
- Increase in the number of yellow wells compared to the reference level (S. typhimurium TA1537; 2.0 mM, +S9): 0.27
- Increase in the number of yellow wells compared to the reference level (S. typhimurium TA1537; 2.0 mM, without S9): 0.54
- Increase in the number of yellow wells compared to the reference level (E. coli WP2; 0.5 mM, +S9): 0.62
- Increase in the number of yellow wells compared to the reference level (E. coli WP2; 0.5 mM, without S9): 1.46
- Increase in the number of yellow wells compared to the reference level (E. coli WP2; 1.0 mM, +S9): 0.71
- Increase in the number of yellow wells compared to the reference level (E. coli WP2; 1.0 mM, without S9): 1.10
- Increase in the number of yellow wells compared to the reference level (E. coli WP2; 2.0 mM, +S9): 0.98
- Increase in the number of yellow wells compared to the reference level (E. coli WP2; 2.0 mM, without S9): 1.10

Compound: O=C(/C=C/c1ccccc1)NCCCCCCO [H-425/21, (E)-N-(6-hydroxyhexyl)cinnamic acid amide]
- Il-1α in culture medium ([1]; 1.0% in 50% PEG (10 µL)): 60.29 ± 1.08 pg/mL
- Viability [% of control, mean±SD] [1, 8]: 99.75±15.49 % of control
- Viability [% of control, mean±SD] [1, 9]: 104.01±1.11 % of control
- Increase in the number of yellow wells compared to the reference level (S. typhimurium TA98; 0.5 mM, +S9): 0.42
- Increase in the number of yellow wells compared to the reference level (S. typhimurium TA98; 0.5 mM, without S9): 0.27
- Increase in the number of yellow wells compared to the reference level (S. typhimurium TA98; 1.0 mM, +S9): 0.42
- Increase in the number of yellow wells compared to the reference level (S. typhimurium TA98; 1.0 mM, without S9): 0.54
- Increase in the number of yellow wells compared to the reference level (S. typhimurium TA98; 2.0 mM, +S9): 0.63
- Increase in the number of yellow wells compared to the reference level (S. typhimurium TA98; 2.0 mM, without S9): 0.80
- Increase in the number of yellow wells compared to the reference level (S. typhimurium TA1537; 0.5 mM, +S9): 1.33
- Increase in the number of yellow wells compared to the reference level (S. typhimurium TA1537; 0.5 mM, without S9): 0.09
- Increase in the number of yellow wells compared to the reference level (S. typhimurium TA1537; 1.0 mM, +S9): 0.00
- Increase in the number of yellow wells compared to the reference level (S. typhimurium TA1537; 1.0 mM, without S9): 0.18
- Increase in the number of yellow wells compared to the reference level (S. typhimurium TA1537; 2.0 mM, +S9): 1.00
- Increase in the number of yellow wells compared to the reference level (S. typhimurium TA1537; 2.0 mM, without S9): 0.82
- Increase in the number of yellow wells compared to the reference level (E. coli WP2; 0.5 mM, +S9): 0.75
- Increase in the number of yellow wells compared to the reference level (E. coli WP2; 0.5 mM, without S9): 0.17
- Increase in the number of yellow wells compared to the reference level (E. coli WP2; 1.0 mM, +S9): 0.83
- Increase in the number of yellow wells compared to the reference level (E. coli WP2; 1.0 mM, without S9): 0.67
- Increase in the number of yellow wells compared to the reference level (E. coli WP2; 2.0 mM, +S9): 0.75
- Increase in the number of yellow wells compared to the reference level (E. coli WP2; 2.0 mM, without S9): 1.00
